Reference: patent US9056104B2, “Dynamic inhibitors of heat shock protein 90” (THE UNIVERSITY OF KANSAS, priority 2011, dated 2015)
Like-named read-outs stand apart in the source and are kept apart here.

Legend:
[1] = system: MCF-7 (estrogen receptor positive breast cancer cells); assay: Anti-proliferative activity against MCF-7 cells; format: cell-based; conditions: mean ± SD
Experimental: (§1) Once synthesized, the library of coumermycin A1 analogs containing the olefinic and saturated linkers, were evaluated for anti-proliferative activity against SKBr3 (estrogen receptor negative, Her2 over-expressing breast cancer cells), MCF-7 (estrogen receptor positive breast cancer cells), A549 (human lung adenocarcinoma epithelial), HT29 (Human colon adenocarcinoma grade II), and PC3mm2 (androgen receptor insensitive prostate cancer) cell lines. […] As shown, X is at the 6 position and Y is at the 8 position.

[2] = system: prostate cancer (PC3mm2, A549 and HT29) cell lines; assay: Anti-proliferative activity against prostate cancer cell lines (collective statements); format: cell-based
Experimental: as §1, with “lines. The activities produced provide insight into the optimal distance between binding sites and provide rationale for subsequent analog design.” for “lines.”
(§2) The first series of analogs included compounds with simplified moieties in lieu of the noviose sugar, while subsequent analogs included varying coumarin, noviose, and tether modifications. Many of these coumermycin A1 analogs manifested potent anti-proliferative activity that correlated directly to HSP90 inhibition as evidenced by the degradation of HSP90-dependent client proteins. Replacement of the laborious, stereochemical complex, and expensive noviose sugar with commercially available piperidine moieties produced compounds that manifested ˜100-fold increase in antiproliferative activities.

[3] = system: SKBr3 (estrogen receptor negative, Her2 over-expressing breast cancer cells); assay: Anti-proliferative activity against SKBr3 cells; format: cell-based; conditions: mean ± SD
Experimental: as §1

[4] = system: A549 (human lung adenocarcinoma epithelial); assay: Anti-proliferative activity against A549 cells; format: cell-based
Experimental: as §1, with “lines. The activities produced provide insight into the optimal distance between binding sites and provide rationale for subsequent analog design.” for “lines.”

[5] = system: HT29 (Human colon adenocarcinoma grade II); assay: Anti-proliferative activity against HT29 cells; format: cell-based
Experimental: as §1, with “lines. The activities produced provide insight into the optimal distance between binding sites and provide rationale for subsequent analog design.” for “lines.”

[6] = system: PC3mm2 (androgen receptor insensitive prostate cancer); assay: Anti-proliferative activity against PC3mm2 cells; format: cell-based
Experimental: as §1, with “lines. The activities produced provide insight into the optimal distance between binding sites and provide rationale for subsequent analog design.” for “lines.”

[7] = system: prostate cancer (PC3mm2) cell lines; assay: Anti-proliferative activity against prostate cancer cell lines (collective statements); format: cell-based; conditions: low nanomolar, prostate cancers; read-out: anti-proliferative activities against prostate cancers
Experimental: as §1, with “lines. The activities produced provide insight into the optimal distance between binding sites and provide rationale for subsequent analog design.” for “lines.”
as §2

[8] = system: HSP90-dependent client proteins (Her-2, Raf, Akt); assay: Western blot analyses of HSP90 client protein degradation in MCF-7 breast cancer cells; format: cell-based; conditions: MCF-7 lysates, 24 hour treatment, 5x and 1/2 of antiproliferative IC50
Experimental: Since actin is not dependent on HSP90 for its maturation, actin levels should remain constant after treatment with an HSP90 inhibitor and is therefore used as a control. […] L represents a concentration ½ of the anti-proliferative IC50 value while H represents a concentration 5 times greater than the anti-proliferative IC50 value. GDA (500 nM) represents a positive control, while DMSO (0), vehicle, serves as the negative control. […]

[9] = Solubility in DMSO; format: physicochemical
[10] = system: SKBr3, MCF-7, A549, HT29 and PC3mm2 cell lines; assay: Anti-proliferative activity, cell lines not specified; format: cell-based; conditions: versus Compounds 65-70
Experimental: as §1, with “lines. The activities produced provide insight into the optimal distance between binding sites and provide rationale for subsequent analog design.” for “lines.”

[11] = system: breast cancer (SKBr3 and MCF7) cell lines; assay: Anti-proliferative activity against breast cancer cell lines (collective statements); format: cell-based; conditions: versus Compound 68
Experimental: as §1, with “lines. The activities produced provide insight into the optimal distance between binding sites and provide rationale for subsequent analog design.” for “lines.”
as §2

[12] = Table 4, read-out: Anti-Proliferation Activities of Biaryl Dimers, MCF-7
[13] = Table 4, read-out: Anti-Proliferation Activities of Biaryl Dimers, SKBr3
[14] = Table 4, read-out: Anti-Proliferation Activities of Biaryl Dimers, A549
[15] = Table 4, read-out: Anti-Proliferation Activities of Biaryl Dimers, HT29
[16] = Table 4, read-out: Anti-Proliferation Activities of Biaryl Dimers, PC3mm2
[17] = Table 5, read-out: Anti-Proliferation Activities Non-Noviosylated Biaryl Dimers, MCF-7
[18] = Table 5, read-out: Anti-Proliferation Activities Non-Noviosylated Biaryl Dimers, SKBr3

| IC50 [1, 12] | IC50 [3, 13] | IC50 [4, 14] | IC50 [5, 15] | IC50 [6, 16] | IC50 [1, 17] | IC50 [3, 18] | solubility in DMSO [9] | SMILES | other results |
| --- | --- | --- | --- | --- | --- | --- | --- | --- | --- |
| 880 ± 200 nM | 910 ± 120 nM | 210 nM | 270 nM | 270 nM | – | – | – | COc1ccc(C(=O)Nc2cc3ccc(OC4OC(C)(C)C(OC)C(O)C4O)c(OC)c3oc2=O)cc1-c1cc(C(=O)Nc2cc3ccc(OC4OC(C)(C)C(OC)C(O)C4O)c(OC)c3oc2=O)ccc1OC (stereo not shown) [Compound 70] | fold more active against prostate cancer cell lines than 8-Me analog Compound 66 ([2]; versus Compound 66): 100-150 fold |
| – | – | – | – | – | – | – | – | Cc1c(OC2CCN(C)CC2)ccc2cc(NC(=O)CCC/C=C/CCCC(=O)Nc3cc4ccc(OC5CCN(C)CC5)c(C)c4oc3=O)c(=O)oc12 [Compound 32] | IC50 ([1]; Table 2, read-out: Anti-Proliferation Activities of non-Noviosylated Olefin Dimers, MCF7): 630 ± 30 nM; IC50 [7]: 200 to 400 nM; fold more active than any other dimer against prostate cancers ([2]; versus other non-noviosylated dimers): 10-20 fold; IC50 ([3]; Table 2, read-out: Anti-Proliferation Activities of non-Noviosylated Olefin Dimers, SKBr3): 890 ± 10 nM; IC50 ([4]; Table 2, read-out: Anti-Proliferation Activities of non-Noviosylated Olefin Dimers, A549): 220 nM; IC50 ([5]; Table 2, read-out: Anti-Proliferation Activities of non-Noviosylated Olefin Dimers, HT29): 240 nM; IC50 ([6]; Table 2, read-out: Anti-Proliferation Activities of non-Noviosylated Olefin Dimers, PC3mm2): 440 nM; degradation of Raf and Akt, Western blot [8]: caused degradation of Raf and Akt; effect on Her2, Western blot [8]: no effect on Her2 |
| – | – | – | – | – | 11700 ± 1600 nM | 9500 ± 1200 nM | inherent insolubility in DMSO | COc1ccc(C(=O)Nc2cc3ccc(OCCCN(C)C)c(C)c3oc2=O)cc1-c1cc(C(=O)Nc2cc3ccc(OCCCN(C)C)c(C)c3oc2=O)ccc1OC [Compound 72] | IC50 ([4]; Table 5, read-out: Anti-Proliferation Activities Non-Noviosylated Biaryl Dimers, A549): 93400 nM; IC50 ([5]; Table 5, read-out: Anti-Proliferation Activities Non-Noviosylated Biaryl Dimers, HT29): 62700 nM; IC50 ([6]; Table 5, read-out: Anti-Proliferation Activities Non-Noviosylated Biaryl Dimers, PC3mm2): 52300 nM; fold less active than the corresponding noviosylated coumarin-containing analogs (Compounds 65-70) [10]: ~10 fold |
| – | – | – | – | – | 14200 ± 2300 nM | 4980 ± 700 nM | inherent insolubility in DMSO | COc1ccc(C(=O)Nc2cc3ccc(OC4CCN(C)CC4)c(C)c3oc2=O)cc1-c1cc(C(=O)Nc2cc3ccc(OC4CCN(C)CC4)c(C)c3oc2=O)ccc1OC [Compound 71] | – |
| 760 ± 140 nM | 1160 ± 210 nM | 36800 nM | 36500 nM | 36700 nM | – | – | – | COc1ccc(C(=O)Nc2cc3ccc(OC4OC(C)(C)C(OC)C(O)C4O)c(C)c3oc2=O)cc1-c1cc(C(=O)Nc2cc3ccc(OC4OC(C)(C)C(OC)C(O)C4O)c(C)c3oc2=O)ccc1OC (stereo not shown) [Compound 66] | fold more active than Compound 68 against breast cancer cell lines [11]: 2 fold |
